Measurements reported in PMC5290327, “SC83288 is a clinical development candidate for the treatment of severe malaria” (Nature Communications, 2017).

Tests used:
Test in all cases: KINOMEscan
Assay type in all cases: binding
Settings in all cases: read-out: Remaining enzyme activity
[1] = target: T1, ASK2 (Homo sapiens, UniProt O95382)
T1 construct: purchased Ambit (DiscoverX) KINOMEscan; Cerep
Outline: (§1)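 SC81458 was screened at a single 10 μM final concentration for its ability to compete with an immobilized, active-site directed ligand for each kinase. Kinase in the eluates was measured by quantitative PCR. Beads were blocked with biotin and SeaBlock buffer holding 1% BSA, 0.05% Tween 20 and 1 mM DTT.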

[2] = target: T2, BRK (Homo sapiens, UniProt Q13882)
T2 construct: purchased Ambit (DiscoverX) KINOMEscan; Cerep
Outline: as §1

[3] = target: T3, CAMK1d (Homo sapiens, UniProt Q8IU85)
T3 construct: purchased Ambit (DiscoverX) KINOMEscan; Cerep
Outline: as §1

[4] = target: T4, CSNK1e (Homo sapiens, UniProt P49674)
T4 construct: purchased Ambit (DiscoverX) KINOMEscan; Cerep
Outline: as §1

[5] = target: T5, CSNK1g1 (Homo sapiens, UniProt Q9HCP0)
T5 construct: purchased Ambit (DiscoverX) KINOMEscan; Cerep
Outline: as §1

[6] = target: T6, CSNK1g3 (Homo sapiens, UniProt Q9Y6M4)
T6 construct: purchased Ambit (DiscoverX) KINOMEscan; Cerep
Outline: as §1

[7] = target: T7, DDR1 (Homo sapiens, UniProt Q08345)
T7 construct: purchased Ambit (DiscoverX) KINOMEscan; Cerep
Outline: as §1

[8] = target: T8, DDR2 (Homo sapiens, UniProt Q16832)
T8 construct: purchased Ambit (DiscoverX) KINOMEscan; Cerep
Outline: as §1

[9] = target: T9, DLK (Homo sapiens, UniProt Q12852)
T9 construct: purchased Ambit (DiscoverX) KINOMEscan; Cerep
Outline: as §1

[10] = target: T10, DYRK1a (Homo sapiens, UniProt Q13627)
T10 construct: purchased Ambit (DiscoverX) KINOMEscan; Cerep
Outline: as §1

[11] = target: T11, DYRK1b (Homo sapiens, UniProt Q9Y463)
T11 construct: purchased Ambit (DiscoverX) KINOMEscan; Cerep
Outline: as §1

[12] = target: T12, ERK3 (Homo sapiens, UniProt Q16659)
T12 construct: purchased Ambit (DiscoverX) KINOMEscan; Cerep
Outline: as §1

[13] = target: T13, IKK-alpha (Homo sapiens, UniProt O15111)
T13 construct: purchased Ambit (DiscoverX) KINOMEscan; Cerep
Outline: as §1

[14] = target: T14, ITK (Homo sapiens, UniProt Q08881)
T14 construct: purchased Ambit (DiscoverX) KINOMEscan; Cerep
Outline: as §1

[15] = target: T15, LZK (Homo sapiens, UniProt O43283)
T15 construct: purchased Ambit (DiscoverX) KINOMEscan; Cerep
Outline: as §1

[16] = target: T16, MAK (Homo sapiens, UniProt P20794)
T16 construct: purchased Ambit (DiscoverX) KINOMEscan; Cerep
Outline: as §1

[17] = target: T17, MAP4K2 (Homo sapiens, UniProt Q12851)
T17 construct: purchased Ambit (DiscoverX) KINOMEscan; Cerep
Outline: as §1

[18] = target: T18, MAP4K4 (Homo sapiens, UniProt O95819)
T18 construct: purchased Ambit (DiscoverX) KINOMEscan; Cerep
Outline: as §1

[19] = target: T19, MST3 (Homo sapiens, UniProt Q9Y6E0)
T19 construct: purchased Ambit (DiscoverX) KINOMEscan; Cerep
Outline: as §1

[20] = target: T20, NEK2 (Homo sapiens, UniProt P51955)
T20 construct: purchased Ambit (DiscoverX) KINOMEscan; Cerep
Outline: as §1

[21] = target: T21, NEK7 (Homo sapiens, UniProt Q8TDX7)
T21 construct: purchased Ambit (DiscoverX) KINOMEscan; Cerep
Outline: as §1

[22] = target: T22, PAK6 (Homo sapiens, UniProt Q9NQU5)
T22 construct: purchased Ambit (DiscoverX) KINOMEscan; Cerep
Outline: as §1

[23] = target: T23, PCTK1 (Homo sapiens, UniProt Q00536)
T23 construct: purchased Ambit (DiscoverX) KINOMEscan; Cerep
Outline: as §1

[24] = target: T24, PFTAIRE2 (Homo sapiens, UniProt Q96Q40)
T24 construct: purchased Ambit (DiscoverX) KINOMEscan; Cerep
Outline: as §1

[25] = target: T25, PIK3C2g (Homo sapiens, UniProt O75747)
T25 construct: purchased Ambit (DiscoverX) KINOMEscan; Cerep
Outline: as §1

[26] = target: T26, PIK3CA(C420R) (Homo sapiens, UniProt P42336, C420R)
T26 construct: purchased Ambit (DiscoverX) KINOMEscan; Cerep
Outline: as §1

[27] = target: T27, PLK3 (Homo sapiens, UniProt Q9H4B4)
T27 construct: purchased Ambit (DiscoverX) KINOMEscan; Cerep
Outline: as §1

[28] = target: T28, PRKX (Homo sapiens, UniProt P51817)
T28 construct: purchased Ambit (DiscoverX) KINOMEscan; Cerep
Outline: as §1

[29] = target: T29, RIOK1 (Homo sapiens, UniProt Q9BRS2)
T29 construct: purchased Ambit (DiscoverX) KINOMEscan; Cerep
Outline: as §1

[30] = target: T30, SIK2 (Homo sapiens, UniProt Q9H0K1)
T30 construct: purchased Ambit (DiscoverX) KINOMEscan; Cerep
Outline: as §1

[31] = target: T31, STK35 (Homo sapiens, UniProt Q8TDR2)
T31 construct: purchased Ambit (DiscoverX) KINOMEscan; Cerep
Outline: as §1

[32] = target: T32, SYK (Homo sapiens, UniProt P43405)
T32 construct: purchased Ambit (DiscoverX) KINOMEscan; Cerep
Outline: as §1

[33] = target: T33, TSSK1B (Homo sapiens, UniProt Q9BXA7)
T33 construct: purchased Ambit (DiscoverX) KINOMEscan; Cerep
Outline: as §1

[34] = target: T34, WEE1 (Homo sapiens, UniProt P30291)
T34 construct: purchased Ambit (DiscoverX) KINOMEscan; Cerep
Outline: as §1

[35] = target: T35, p38-delta (Homo sapiens, UniProt O15264)
T35 construct: purchased Ambit (DiscoverX) KINOMEscan; Cerep
Outline: as §1

Measured: remaining binding at 10 µM

T25 sequence (O75747 whole entry): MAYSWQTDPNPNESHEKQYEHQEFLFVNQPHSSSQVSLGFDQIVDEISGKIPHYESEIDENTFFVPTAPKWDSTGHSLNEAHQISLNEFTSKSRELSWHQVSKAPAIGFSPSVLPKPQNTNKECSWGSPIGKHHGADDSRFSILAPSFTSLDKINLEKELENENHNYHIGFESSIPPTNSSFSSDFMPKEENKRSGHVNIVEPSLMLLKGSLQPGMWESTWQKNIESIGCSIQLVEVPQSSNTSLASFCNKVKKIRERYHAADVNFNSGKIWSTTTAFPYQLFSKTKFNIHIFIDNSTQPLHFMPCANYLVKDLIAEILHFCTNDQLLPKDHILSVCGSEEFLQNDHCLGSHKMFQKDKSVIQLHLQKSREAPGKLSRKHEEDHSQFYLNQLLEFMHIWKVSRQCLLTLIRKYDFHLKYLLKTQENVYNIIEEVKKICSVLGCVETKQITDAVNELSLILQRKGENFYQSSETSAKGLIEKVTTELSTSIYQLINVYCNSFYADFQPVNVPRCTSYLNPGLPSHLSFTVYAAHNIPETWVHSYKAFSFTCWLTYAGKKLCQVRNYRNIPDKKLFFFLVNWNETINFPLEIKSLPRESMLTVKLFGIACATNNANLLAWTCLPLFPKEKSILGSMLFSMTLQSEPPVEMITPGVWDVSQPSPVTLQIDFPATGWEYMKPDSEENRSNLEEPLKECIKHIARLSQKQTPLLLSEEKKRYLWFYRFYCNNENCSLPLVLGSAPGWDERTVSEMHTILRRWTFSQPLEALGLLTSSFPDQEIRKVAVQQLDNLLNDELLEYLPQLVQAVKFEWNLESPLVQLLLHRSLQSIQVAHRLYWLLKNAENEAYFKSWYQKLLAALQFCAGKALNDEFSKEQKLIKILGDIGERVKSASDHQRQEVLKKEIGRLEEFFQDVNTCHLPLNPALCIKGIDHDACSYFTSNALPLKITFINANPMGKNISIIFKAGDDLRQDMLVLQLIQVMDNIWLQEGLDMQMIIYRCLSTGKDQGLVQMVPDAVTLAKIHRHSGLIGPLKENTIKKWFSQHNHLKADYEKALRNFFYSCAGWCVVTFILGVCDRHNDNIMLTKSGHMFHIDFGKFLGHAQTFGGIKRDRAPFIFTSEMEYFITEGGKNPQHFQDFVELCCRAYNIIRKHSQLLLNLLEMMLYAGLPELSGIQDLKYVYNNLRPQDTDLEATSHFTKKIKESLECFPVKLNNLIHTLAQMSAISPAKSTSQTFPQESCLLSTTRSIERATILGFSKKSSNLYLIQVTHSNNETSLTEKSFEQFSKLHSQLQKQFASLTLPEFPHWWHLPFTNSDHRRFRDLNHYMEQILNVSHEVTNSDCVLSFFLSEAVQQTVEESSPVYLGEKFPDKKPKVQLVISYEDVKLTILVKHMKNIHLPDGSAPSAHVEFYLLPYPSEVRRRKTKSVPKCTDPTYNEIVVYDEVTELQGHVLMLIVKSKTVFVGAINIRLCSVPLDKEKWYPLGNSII
T7 sequence (Q08345 19-913): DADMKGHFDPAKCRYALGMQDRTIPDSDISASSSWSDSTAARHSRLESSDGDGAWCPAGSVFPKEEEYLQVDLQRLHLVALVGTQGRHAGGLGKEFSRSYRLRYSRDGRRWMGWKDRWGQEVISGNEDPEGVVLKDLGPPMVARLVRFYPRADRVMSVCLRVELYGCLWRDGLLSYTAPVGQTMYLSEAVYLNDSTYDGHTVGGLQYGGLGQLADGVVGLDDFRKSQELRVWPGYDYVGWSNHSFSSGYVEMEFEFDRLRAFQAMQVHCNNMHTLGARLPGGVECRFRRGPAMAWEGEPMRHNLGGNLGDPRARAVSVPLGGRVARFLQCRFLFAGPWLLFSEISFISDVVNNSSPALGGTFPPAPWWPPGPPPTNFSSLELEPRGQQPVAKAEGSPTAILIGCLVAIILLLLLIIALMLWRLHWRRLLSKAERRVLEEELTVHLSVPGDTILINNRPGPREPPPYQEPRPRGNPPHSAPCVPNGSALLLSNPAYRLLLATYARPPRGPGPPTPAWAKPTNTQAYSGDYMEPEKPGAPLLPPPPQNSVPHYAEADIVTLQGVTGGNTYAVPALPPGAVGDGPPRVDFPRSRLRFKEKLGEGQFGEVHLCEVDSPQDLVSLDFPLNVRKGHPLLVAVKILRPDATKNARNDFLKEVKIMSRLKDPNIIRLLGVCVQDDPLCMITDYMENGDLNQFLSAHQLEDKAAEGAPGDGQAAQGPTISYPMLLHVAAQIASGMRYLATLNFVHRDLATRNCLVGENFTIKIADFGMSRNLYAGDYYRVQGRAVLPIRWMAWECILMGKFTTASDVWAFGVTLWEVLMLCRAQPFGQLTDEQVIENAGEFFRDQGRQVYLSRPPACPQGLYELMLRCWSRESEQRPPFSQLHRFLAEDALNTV
T29 sequence (Q9BRS2 whole entry): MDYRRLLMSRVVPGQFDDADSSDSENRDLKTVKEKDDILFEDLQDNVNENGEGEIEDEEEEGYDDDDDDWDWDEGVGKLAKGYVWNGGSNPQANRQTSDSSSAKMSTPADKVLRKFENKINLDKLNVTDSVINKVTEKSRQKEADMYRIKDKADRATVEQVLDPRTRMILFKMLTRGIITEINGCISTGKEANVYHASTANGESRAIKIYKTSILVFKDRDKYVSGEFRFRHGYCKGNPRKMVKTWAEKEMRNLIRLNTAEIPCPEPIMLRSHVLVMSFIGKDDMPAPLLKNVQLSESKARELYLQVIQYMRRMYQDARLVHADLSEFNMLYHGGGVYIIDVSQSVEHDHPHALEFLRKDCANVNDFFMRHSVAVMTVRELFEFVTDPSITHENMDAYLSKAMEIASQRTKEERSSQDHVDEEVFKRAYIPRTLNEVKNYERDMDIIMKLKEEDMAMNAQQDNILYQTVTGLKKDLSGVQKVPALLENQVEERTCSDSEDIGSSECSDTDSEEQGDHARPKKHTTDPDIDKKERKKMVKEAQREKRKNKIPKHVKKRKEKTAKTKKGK
T33 sequence (Q9BXA7 whole entry): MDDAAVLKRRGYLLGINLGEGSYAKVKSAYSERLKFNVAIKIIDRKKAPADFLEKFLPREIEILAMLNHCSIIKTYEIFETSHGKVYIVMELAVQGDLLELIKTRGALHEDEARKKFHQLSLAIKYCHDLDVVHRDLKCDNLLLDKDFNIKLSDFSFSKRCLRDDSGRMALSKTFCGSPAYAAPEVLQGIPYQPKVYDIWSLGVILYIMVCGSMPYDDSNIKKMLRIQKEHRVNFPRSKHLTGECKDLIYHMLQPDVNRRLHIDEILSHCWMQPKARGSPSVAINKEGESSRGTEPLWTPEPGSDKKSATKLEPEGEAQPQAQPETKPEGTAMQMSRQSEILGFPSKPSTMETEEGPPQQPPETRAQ
T23 sequence (Q00536 whole entry): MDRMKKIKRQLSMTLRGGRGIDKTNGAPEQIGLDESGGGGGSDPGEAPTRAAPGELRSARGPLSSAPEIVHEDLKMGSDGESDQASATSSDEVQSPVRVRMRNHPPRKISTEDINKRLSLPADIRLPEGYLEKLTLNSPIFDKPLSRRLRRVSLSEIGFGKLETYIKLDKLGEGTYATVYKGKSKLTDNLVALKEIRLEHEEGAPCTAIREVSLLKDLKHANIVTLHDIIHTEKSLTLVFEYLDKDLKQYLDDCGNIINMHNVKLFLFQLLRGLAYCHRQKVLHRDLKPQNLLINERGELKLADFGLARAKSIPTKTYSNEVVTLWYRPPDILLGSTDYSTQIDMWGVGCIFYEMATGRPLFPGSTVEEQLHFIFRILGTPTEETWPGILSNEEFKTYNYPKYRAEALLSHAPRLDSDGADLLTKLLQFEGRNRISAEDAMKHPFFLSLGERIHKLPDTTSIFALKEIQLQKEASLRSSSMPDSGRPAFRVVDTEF
T26 sequence (P42336 whole entry C420R): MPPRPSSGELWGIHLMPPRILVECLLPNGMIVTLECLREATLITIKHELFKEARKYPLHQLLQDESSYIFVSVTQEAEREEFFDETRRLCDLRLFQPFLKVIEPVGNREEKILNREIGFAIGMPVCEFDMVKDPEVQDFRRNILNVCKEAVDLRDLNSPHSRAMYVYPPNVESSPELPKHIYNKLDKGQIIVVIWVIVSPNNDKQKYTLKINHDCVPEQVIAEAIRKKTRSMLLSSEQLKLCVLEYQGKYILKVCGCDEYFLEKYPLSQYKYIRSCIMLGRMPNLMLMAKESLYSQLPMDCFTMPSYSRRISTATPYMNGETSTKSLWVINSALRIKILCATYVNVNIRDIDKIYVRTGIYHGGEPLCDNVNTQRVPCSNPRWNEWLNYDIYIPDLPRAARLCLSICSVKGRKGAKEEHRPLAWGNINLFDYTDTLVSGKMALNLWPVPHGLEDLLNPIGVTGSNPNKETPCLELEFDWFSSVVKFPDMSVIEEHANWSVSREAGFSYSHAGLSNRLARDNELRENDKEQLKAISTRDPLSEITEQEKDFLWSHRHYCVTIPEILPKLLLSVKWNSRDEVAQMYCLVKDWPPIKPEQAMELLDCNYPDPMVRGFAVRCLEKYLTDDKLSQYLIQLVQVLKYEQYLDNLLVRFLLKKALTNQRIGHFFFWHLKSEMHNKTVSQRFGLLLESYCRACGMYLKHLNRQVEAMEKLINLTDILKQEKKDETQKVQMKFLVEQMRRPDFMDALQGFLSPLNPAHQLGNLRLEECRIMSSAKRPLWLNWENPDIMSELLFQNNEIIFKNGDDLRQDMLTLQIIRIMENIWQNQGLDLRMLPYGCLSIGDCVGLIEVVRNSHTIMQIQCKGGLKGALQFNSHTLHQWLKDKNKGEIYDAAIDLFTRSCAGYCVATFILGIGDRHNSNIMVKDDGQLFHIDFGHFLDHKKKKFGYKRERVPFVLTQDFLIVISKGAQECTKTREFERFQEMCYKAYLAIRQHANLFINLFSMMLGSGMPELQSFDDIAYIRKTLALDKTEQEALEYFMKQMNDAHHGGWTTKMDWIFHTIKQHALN

CCCCN1CCN(C(=N)c2cccc(NC(=O)Nc3ccc(S(=O)(=O)NCc4ccc(S(N)(=O)=O)cc4)cc3)c2)CC1 [SC81458, 4-(3-(3-((4-butylpiperazin-1-yl)(imino)methyl)phenyl)ureido)-N-(4-sulfamoylbenzyl) benzenesulfonamide]
86%: [14]
97%: [33]
91%: [3] | [7] | [16]
75%: [27] | [29]
92%: [23]
72%: [28]
95%: [21] | [22]
87%: [11] | [31]
89%: [35]
96%: [20]
100%: all other assays above
